For one compound, IC90 results are on record in patent US20040063734A1, “4,4-Disubstituted-3,4-dihydro-2 (1H)-quinazoliniones useful as HIV reverse transcriptase inhibitors” (priority 2002, published 2004).

In brackets after ≈: the same amount, converted by molar mass.

The test has as its system HIV-1 (RF). As to the kind of experiment: HIV RNA assay: microplate based compound evaluation in HIV-1 infected MT-2 cells. The class given is cell-based. The following applies: Human immunodeficiency virus 1, MT2, 72 h; HIV-1 (RF) infected MT-2 cells, 3 days culture; value used to standardize the virus inoculum; read-out: IC90 (concentration of compound required to reduce the HIV RNA level by 90%). As for the experimental part:
DNA Plasmids and in vitro RNA Transcripts:
Plasmid pDAB 72 containing both gag and pol sequences of BH10 (bp 113-1816) cloned into PTZ 19R was prepared according to Erickson-Viitanen et al. AIDS Research and Human Retroviruses 1989, 5, 577. The plasmid was linearized with Bam HI prior to the generation of in vitro RNA transcripts using the Riboprobe Gemini system II kit (Promega) with T7 RNA polymerase. Synthesized RNA was purified by treatment with RNase free DNAse (Promega), phenol-chloroform extraction, and ethanol precipitation. RNA transcripts were dissolved in water, and stored at −70° C. The concentration of RNA was determined from the A260.
Biotinylated capture probes were purified by HPLC after synthesis on an Applied Biosystems (Foster City, Calif.) DNA synthesizer by addition of biotin to the 5′ terminal end of the oligonucleotide, using the biotin-phosphoramidite reagent of Cocuzza, Tet. Lett. 1989, 30, 6287. […]
MT-2 and MT-4 cells were maintained in RPMI 1640 supplemented with 5% fetal calf serum (FCS) for MT-2 cells or 10% FCS for MT-4 cells, 2 mM L-glutamine and 50 μg/mL gentamycin, all from Gibco. […] Infectious titers of HIV-1(RF) stocks were 1-3×10^7 PFU (plaque forming units)/mL as measured by plaque assay on MT-2 cells (see below). […]

As to `Nc1ccn([C@H]2CC[C@@H](CO)O2)c(=O)n1` [ddC, 2′,3′-dideoxycytidine], the IC90 worked out at 0.2 µg/mL (≈ 0.947 µM).
